For one assay, the target named is P70S6K (T412E mutant) (Homo sapiens (Human), UniProt P23443, T412E). The assay is described as follows: P70S6K enzyme assay. Type of assay: biochemical. The note with it: read-out: IC50 p70S6K. Summed up: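 Read-out is the substrate/phosphopeptide ratio from mobility-shift electrophoresis on a LabChip 3000.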
The target of a further assay is His-AKT (Full Length) (Homo sapiens (Human), UniProt P31749). The assay is described as follows: AKT enzyme assay. Type of assay: biochemical. The note with it: read-out: IC50 AKT.

This is an account of results in patent US9145392B2, “Imidazole amines as modulators of kinase activity” (Merck Patent GmbH, priority 2011, dated 2015).

P70S6K (T412E mutant), sequence (P23443 whole entry T412E): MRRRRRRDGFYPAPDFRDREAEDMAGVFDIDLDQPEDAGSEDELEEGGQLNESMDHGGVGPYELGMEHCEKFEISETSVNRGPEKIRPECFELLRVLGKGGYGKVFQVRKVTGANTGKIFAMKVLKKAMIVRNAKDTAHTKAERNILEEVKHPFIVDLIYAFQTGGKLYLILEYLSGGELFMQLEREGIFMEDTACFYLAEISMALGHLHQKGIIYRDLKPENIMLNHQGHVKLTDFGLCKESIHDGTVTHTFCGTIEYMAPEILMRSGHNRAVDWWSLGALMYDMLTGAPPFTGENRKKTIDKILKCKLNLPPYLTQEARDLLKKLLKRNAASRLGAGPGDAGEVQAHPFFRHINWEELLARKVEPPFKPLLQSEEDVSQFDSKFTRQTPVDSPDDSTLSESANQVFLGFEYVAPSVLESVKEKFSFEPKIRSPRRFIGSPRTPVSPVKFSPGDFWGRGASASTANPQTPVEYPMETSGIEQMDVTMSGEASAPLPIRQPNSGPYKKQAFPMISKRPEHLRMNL
His-AKT (Full Length), sequence (P31749 whole entry): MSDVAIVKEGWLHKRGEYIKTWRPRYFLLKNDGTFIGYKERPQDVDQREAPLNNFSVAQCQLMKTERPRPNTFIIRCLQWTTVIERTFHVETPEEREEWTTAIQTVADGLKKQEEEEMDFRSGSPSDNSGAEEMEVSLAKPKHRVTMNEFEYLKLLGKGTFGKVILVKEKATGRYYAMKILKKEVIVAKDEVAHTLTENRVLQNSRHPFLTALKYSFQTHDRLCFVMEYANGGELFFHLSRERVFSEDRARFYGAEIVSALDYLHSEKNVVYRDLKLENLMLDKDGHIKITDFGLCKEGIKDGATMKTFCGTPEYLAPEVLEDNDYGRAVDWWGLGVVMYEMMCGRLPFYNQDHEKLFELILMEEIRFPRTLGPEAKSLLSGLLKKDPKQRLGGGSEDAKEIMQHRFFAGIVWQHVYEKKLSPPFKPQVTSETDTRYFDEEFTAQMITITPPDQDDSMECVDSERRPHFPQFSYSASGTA

On to `Nc1ncnc(N2CCC(c3nc(-c4ccc(F)c(C(F)(F)F)c4)cn3CCN3CCC3)CC2)c1N` [Compound 284], for which the results for the IC50 at P70S6K (T412E mutant) and at His-AKT (Full Length) were 10.6 nM and 51.5 nM, respectively.
In the same order, the values of `Cc1cc(-c2cn(CCN(C)C)c(C3CCN(c4ncnc(N)c4-c4cn[nH]c4)CC3)n2)ccc1F` [Compound 163, 6-(4-(1-(2-(dimethylamino)ethyl)-4-(4-fluoro-3-methylphenyl)-1H-imidazol-2-yl)piperidin-1-yl)-5-(1H-pyrazol-4-yl)pyrimidin-4-amine] are 0.73 nM and 4.8 nM.
`Nc1cc(N2CCC(c3nc(-c4cccc(F)c4)cn3CCN3CCCC3)CC2)ncn1` [Compound 244]: the IC50 (commonly the midpoint of a concentration-inhibition curve) is 25 nM on P70S6K (T412E mutant) and 210 nM at His-AKT (Full Length).
Turning to `Nc1ncnc(N2CCC(c3nc(-c4cccc(F)c4)cn3CCN3CCCC3)CC2)c1Br` [Compound 228], the figures for the IC50 at P70S6K (T412E mutant) and on His-AKT (Full Length) were 1.4 nM and 5.9 nM, respectively.
On to `Cc1cc(-c2cn(CCNCC3CC3)c(C3CCN(c4ncnc(N)c4C#N)CC3)n2)ccc1F` [Compound 378, 4-Amino-6-{4-[1-[2-(cyclopropylmethyl-amino)-ethyl]-4-(4-fluoro-3-methyl-phenyl)-1H-imidazol-2-yl]-piperidin-1-yl}-pyrimidine-5-carbonitrile], for which the results for the half-maximal inhibitory concentration (IC50) at P70S6K (T412E mutant) and on His-AKT (Full Length) were 0.8 nM and 2.3 nM, respectively.
Regarding `Nc1ncnc(N2CCC(c3nc(-c4ccc(F)c(F)c4)cn3CCN3CCCC3)CC2)c1Cl` [Compound 238], the IC50 on P70S6K (T412E mutant) is 0.9 nM; at His-AKT (Full Length), 3.2 nM.
For `CCc1c(N)ncnc1N1CCC(c2nc(-c3ccnc(C)c3)cn2CCN2CCC2)CC1` [Compound 111, 6-(4-(1-(2-(azetidin-1-yl)ethyl)-4-(2-methylpyridin-4-yl)-1H-imidazol-2-yl)piperidin-1-yl)-5-ethylpyrimidin-4-amine], the results for the IC50 on P70S6K (T412E mutant) and on His-AKT (Full Length) were 8.7 nM and 106 nM, respectively.
For the molecule `NC(=O)c1c(N)ncnc1N1CCC(c2nc(-c3ccc(F)c(Cl)c3)cn2CCN2CCC2)CC1` [Compound 79, 4-Amino-6-{4-[1-(2-azetidin-1-yl-ethyl)-4-(3-chloro-4-fluoro-phenyl)-1H-imidazol-2-yl]-piperidin-1-yl}-pyrimidine-5-carboxylic acid amide], the IC50 at P70S6K (T412E mutant) is 0.9 nM; on His-AKT (Full Length) it was 7.5 nM.
Consider `Cn1cc(-c2ccc(F)c(C(F)(F)F)c2)nc1C1CCN(c2ncnc(N)c2-c2ccc(CO)cc2)CC1` [Compound 14, [4-(4-Amino-6-{4-[4-(4-fluoro-3-trifluoromethyl-phenyl)-1-methyl-1H-imidazol-2-yl]-piperidin-1-yl}-pyrimidin-5-yl)-phenyl]-methanol], for which the IC50 is 1.9 nM on P70S6K (T412E mutant) and 250 nM at His-AKT (Full Length).
With `Nc1ncnc(N2CCC(c3nc(-c4ccc(Cl)cc4)cn3CCN3CCCC3)CC2)c1C1CCC1` [Compound 263], the concentration for half-maximal inhibition (IC50) at P70S6K (T412E mutant) came out at 25 nM; on His-AKT (Full Length) it was 79 nM.
In the same order, the values of `Nc1ncnc(N2CCC(c3nc(-c4ccc(F)c(C(F)(F)F)c4)cn3CC3CNC3)CC2)c1Cl` [Compound 148, 6-(4-(1-(azetidin-3-ylmethyl)-4-(4-fluoro-3-(trifluoromethyl)phenyl)-1H-imidazol-2-yl)piperidin-1-yl)-5-chloropyrimidin-4-amine] are 4.8 nM and 16.5 nM.
In the same order, the values of `Nc1ncnc(N2CCC(c3nc(-c4ccc(F)c(C(F)(F)F)c4)cn3CCN3CCCCC3)CC2)c1Cl` [Compound 216] are 3.8 nM and 9 nM.
For `CCN(CCn1cc(-c2ccc(F)c(C)c2)nc1C1CCN(c2ncnc(N)c2C#N)CC1)C(C)C` [Compound 327], the results for the IC50 on P70S6K (T412E mutant) and on His-AKT (Full Length) were 5.2 nM and 2.8 nM, respectively.
Regarding `CC(C)CNCCn1cc(-c2ccc(F)c(C(F)(F)F)c2)nc1C1CCN(c2ncnc(N)c2C(N)=O)CC1` [Compound 373, 4-Amino-6-{4-[4-(4-fluoro-3-trifluoromethyl-phenyl)-1-(2-isobutylamino-ethyl)-1H-imidazol-2-yl]-piperidin-1-yl}-pyrimidine-5-carboxylic acid amide], the IC50 on P70S6K (T412E mutant) came to 2.9 nM; on His-AKT (Full Length), 12 nM.
In the case of `Nc1ncnc(N2CCC(c3nc(-c4ccc(F)c(C(F)(F)F)c4)cn3CCN3CCCCC3)CC2)c1-c1cccc(F)c1` [Compound 64], the IC50 came to 8.7 nM on P70S6K (T412E mutant) and 85 nM at His-AKT (Full Length).
For `Nc1ncnc(N2CCC(c3nc(-c4ccc(F)c(C(F)(F)F)c4)cn3CCN3CCCC3)CC2)c1C(=O)O` [Compound 286], the IC50 worked out at 135 nM at P70S6K (T412E mutant) and 730 nM on His-AKT (Full Length).
As for `COc1ccc(-c2c(N)ncnc2N2CCC(c3nc(-c4ccc(F)c(C(F)(F)F)c4)cn3C)CC2)cc1` [Compound 11, 6-{4-[4-(4-Fluoro-3-trifluoromethyl-phenyl)-1-methyl-1H-imidazol-2-yl]-piperidin-1-yl}-5-(4-methoxy-phenyl)-pyrimidin-4-ylamine], the IC50 was 4.7 nM on P70S6K (T412E mutant) and 520 nM on His-AKT (Full Length).
Turning to `Nc1cc(N2CCC(c3nc(-c4ccc(F)c(C(F)(F)F)c4)cn3CCN3CCCC3)CC2)ncn1` [Compound 214], the IC50 was found to be 50 nM at P70S6K (T412E mutant) and 180 nM at His-AKT (Full Length).
For `COCCNCCn1cc(-c2ccc(F)c(C(F)(F)F)c2)nc1C1CCN(c2ncnc(N)c2C#N)CC1` [Compound 364, 4-Amino-6-(4-{4-(4-fluoro-3-trifluoromethyl-phenyl)-1-[2-(2-methoxy-ethylamino)-ethyl]-1H-imidazol-2-yl}-piperidin-1-yl)-pyrimidine-5-carbonitrile], the 50% inhibitory concentration (IC50) came out at 1.4 nM on P70S6K (T412E mutant) and 2.5 nM on His-AKT (Full Length).
With `NC(=O)c1c(N)ncnc1N1CCC(c2nc(-c3cc[nH]c(=O)c3)cn2CCN2CCC2)CC1` [Compound 339], the IC50 was determined as 2700 nM at P70S6K (T412E mutant) and 5800 nM at His-AKT (Full Length).
`CCOCCc1c(N)ncnc1N1CCC(c2nc(-c3ccc(F)c(C(F)(F)F)c3)cn2CCN(C)C)CC1` [Compound 84, 6-(4-(1-(2-(Dimethylamino)ethyl)-4-(4-fluoro-3-(trifluoromethyl)phenyl)-1H-imidazol-2-yl)piperidin-1-yl)-5-(2-ethoxyethyl)pyrimidin-4-amine]: the IC50 at P70S6K (T412E mutant) is 5.2 nM; on His-AKT (Full Length), 340 nM.
Turning to `C=Cc1c(N)ncnc1N1CCC(c2nc(-c3ccc(C(F)(F)F)c(F)c3)cn2CCN2CCCC2)CC1` [Compound 239], the IC50 at P70S6K (T412E mutant) came out at 4.4 nM; at His-AKT (Full Length) it was 210 nM.
As for `CC(C)Oc1c(N)ncnc1N1CCC(c2nc(-c3ccc(F)c(C(F)(F)F)c3)cn2CC2CNC2)CC1` [Compound 175, 6-(4-(1-(azetidin-3-ylmethyl)-4-(4-fluoro-3-(trifluoromethyl)phenyl)-1H-imidazol-2-yl)piperidin-1-yl)-5-isopropoxypyrimidin-4-amine], the IC50 on P70S6K (T412E mutant) was 5.9 nM; at His-AKT (Full Length), 4.5 nM.
`CCc1c(N)ncnc1N1CCC(c2nc(-c3ccc(F)cc3)cn2CCN2CC3(COC3)C2)CC1` [Compound 197, 5-Ethyl-6-(4-{4-(4-fluoro-phenyl)-1-[2-(2-oxa-6-aza-spiro[3.3]hept-6-yl)-ethyl]-1H-imidazol-2-yl}-piperidin-1-yl)-pyrimidin-4-ylamine]: the IC50 on P70S6K (T412E mutant) stood at 6.3 nM; on His-AKT (Full Length), 130 nM.
For `CCc1c(N)ncnc1N1CCC(c2nc(-c3cccc(C(F)(F)F)c3)cn2CCN2CCCC2)CC1` [Compound 272], the values for the IC50 on P70S6K (T412E mutant) and on His-AKT (Full Length) were 3.5 nM and 9.6 nM, respectively.
Consider `COc1ccc(-c2cn(CCN3CCC3)c(C3CCN(c4ncnc(N)c4C(N)=O)CC3)n2)cc1F` [Compound 345], for which the IC50 on P70S6K (T412E mutant) came out at 100 nM; at His-AKT (Full Length) it was 13000 nM.
For `NC(=O)c1c(N)ncnc1N1CCC(c2nc(-c3ccc(F)c(OC(F)F)c3)cn2CCN2CCC2)CC1` [Compound 338] the same measures were 2 nM and 29 nM.
In the same order, the values of `Nc1ncnc(N2CCC(c3nc(-c4ccc(F)c(C(F)(F)F)c4)cn3C[C@@H]3CCN3)CC2)c1Cl` [Compound 149, (S)-6-(4-(1-(azetidin-2-ylmethyl)-4-(4-fluoro-3-(trifluoromethyl)phenyl)-1H-imidazol-2-yl)piperidin-1-yl)-5-chloropyrimidin-4-amine] are 4.8 nM and 38 nM.
On to `Cc1ccc(-c2c(N)ncnc2N2CCC(c3nc(-c4ccc(F)c(C(F)(F)F)c4)cn3C)CC2)cc1` [Compound 13, 6-{4-[4-(4-Fluoro-3-trifluoromethyl-phenyl)-1-methyl-1H-imidazol-2-yl]-piperidin-1-yl}-5-p-tolyl-pyrimidin-4-ylamine], for which the IC50 on P70S6K (T412E mutant) came out at 7.3 nM; at His-AKT (Full Length) it was 8300 nM.
For `CC(C)Oc1c(N)ncnc1N1CCC(c2nc(-c3ccnc(C(F)(F)F)c3)cn2CCN2CCC2)CC1` [Compound 117, 6-(4-(1-(2-(azetidin-1-yl)ethyl)-4-(2-(trifluoromethyl)pyridin-4-yl)-1H-imidazol-2-yl)piperidin-1-yl)-5-isopropoxypyrimidin-4-amine], the figures for the IC50 at P70S6K (T412E mutant) and at His-AKT (Full Length) were 4.9 nM and 9.1 nM, respectively.
In the same order, the values of `Nc1ncnc(N2CCC(c3nc(-c4ccc(F)c(C(F)(F)F)c4)cn3CCN3CCC3)CC2)c1Cl` [Compound 218] are 0.6 nM and 1 nM.
Take `N#Cc1c(N)ncnc1N1CCC(c2nc(-c3cnc(F)c(Cl)c3)cn2CCN2CCC2)CC1` [Compound 205, 4-Amino-6-{4-[1-(2-azetidin-1-yl-ethyl)-4-(5-chloro-6-fluoro-pyridin-3-yl)-1H-imidazol-2-yl]-piperidin-1-yl}-pyrimidine-5-carbonitrile]: the results for the IC50 on P70S6K (T412E mutant) and on His-AKT (Full Length) were 0.8 nM and 1.3 nM, respectively.
Consider `CC(C)NCCn1cc(-c2ccc(F)c(C(F)(F)F)c2)nc1C1CCN(c2ncnc(N)c2C(N)=O)CC1` [Compound 370, 4-Amino-6-{4-[4-(4-fluoro-3-trifluoromethyl-phenyl)-1-(2-isopropylamino-ethyl)-1H-imidazol-2-yl]-piperidin-1-yl}-pyrimidine-5-carboxylic acid amide], for which the IC50 is 0.9 nM on P70S6K (T412E mutant) and 2.5 nM on His-AKT (Full Length).
